From article PMC11876671, “Investigating blood–brain barrier penetration and neurotoxicity of natural products for central nervous system drug development” (Scientific Reports, 2025) come the findings set out here.

Where two headings read alike, the source gives them in different places.

For data set [1], the system named is GFP-labeled iPSC-derived human cortical glutamatergic neurons. The note with it: for AC50: read-out: Viability AC50 (48hr).
Data set [2] has the same test system. The data set is described as follows: cells. The data set is classed as cell-based.
The nature of the next data set: in vitro. The note with it: PAMPA, PAMPA-BBB Pe. On the technique in general: In PAMPA a lipid-coated filter parts donor from acceptor wells.
The subject of data set [3] is GFP-labeled iPSC-derived human cortical glutamatergic neurons. Kind of data set: cells. The note with it: Neuron, 48 h.
Setting [4] is: Table 1, 60 min, room temperature, 0.05 mM.
Where [5] appears, read: Table S2: compounds exhibiting moderate to high PAMPA-BBB permeability.
[6] abbreviates: Homo sapiens, Neuron, rounded values, read-out: AC50 (neurite outgrowth inhibition).
Setting [7] is: Homo sapiens, Neuron, total neurite length, 48 h treatment, read-out: TNL AC50 (48 h).
Setting [8] is: Table S1, 60 min, room temperature, 0.05 mM.
The mark [9] stands for this setting: read-out: Viability AC50 (48 h).
[10] abbreviates: read-out: Viability AC50 (48hr).
Setting [11] is: Homo sapiens, Neuron, Table S1, total neurite length, 48 hr, head prints no unit, µM per Table 1 and Fig. 5, read-out: TNL AC50 (48 hr).

Turning to `COc1ccc(-c2cc(=O)c3ccccc3o2)cc1OC` [3’,4’-dimethoxyflavone], the “PAMPA-BBB Pe” value reads like this: under setting [4], 249.21 10 × 10^− 6 cm/sec; under setting [5], 249 10^-6 cm/sec. In addition, the “Viability AC50 (48 h)” value in data set [1] (48 h treatment) was “inactive”. Further, the values for the AC50 in data set [2] (setting [6]) and in data set [2] (setting [7]) were 0.7 µM and 0.759 µM, respectively. Further, in the data set “in vitro” (setting [8]), the Papp is 249 ×10⁻⁶ cm/s.
Take `O=c1oc2c(O)c(O)cc3c(=O)oc4c(O)c(O)cc1c4c23` [Ellagic acid]: the “PAMPA-BBB Pe” value runs as follows: under setting [4], 119.5 10 × 10^− 6 cm/sec; under setting [5], 120 10^-6 cm/sec. Also, the AC50 was found to be 4 µM in data set [3] (setting [9]), 3.1 µM in data set [2] (setting [6]) and 3.05 µM in data set [2] (setting [7]). The “effect on number of objects” value in data set [1] (48 h treatment, in words) is reported as “minimal effects”. Moreover, the “inhibition of cortical neurite outgrowth (total neurite length)” value in data set [2] (24 and 48 h treatment, in words) was “inhibited cortical neurite outgrowth”. In “in vitro” (setting [8]), this compound registered an apparent permeability (Papp) of 120 ×10⁻⁶ cm/s.
Take `COc1cc(/C=C/C(=O)N2CCC=CC2=O)cc(OC)c1OC` [Piperlongumine]: the “PAMPA-BBB Pe” value under setting [4] is on record as 90.26 10 × 10^− 6 cm/sec. Besides, the “Viability AC50 (48 h)” value in data set [1] (48 h treatment) was “Inactive”. Moreover, the AC50 in data set [2] (setting [7]) is 3.74 µM. Besides, the Papp turned out to be 90.3 ×10⁻⁶ cm/s in “in vitro” (setting [8]) and 90 ×10⁻⁶ cm/s in “in vitro” (setting [5]).
`CC[C@]1(O)C[C@H]2CN(CCc3c([nH]c4ccccc34)[C@@](C(=O)OC)(c3cc4c(cc3OC)N(C=O)[C@H]3[C@@](O)(C(=O)OC)[C@H](OC(C)=O)[C@]5(CC)C=CCN6CC[C@]43[C@@H]65)C2)C1` [Vincristine, reference compound]: the “PAMPA-BBB Pe” value (PAMPA) is on record as 21.19 10^-6 cm/sec. The AC50 in data set [1] was determined as 37.2 µM; in data set [2] (read-out: TNL AC50 (48 hr)) it was 30.4 µM.
In the case of `COc1cc(-c2cc(=O)c3c(O)cc(O)cc3o2)ccc1O` [Chrysoeriol], the “PAMPA-BBB Pe” value under setting [4] was 178.56 10 × 10^− 6 cm/sec. Moreover, the “Viability AC50 (48 h)” value in data set [1] (48 h treatment) is “inactive”. For the same compound, the AC50 worked out at 2.2 µM in data set [2] (setting [6]) and 2.22 µM in data set [2] (setting [7]). In the data set “in vitro” (setting [8]), this compound displayed a Papp of 179 ×10⁻⁶ cm/s.
With 2 ,4 -DIHYDROXYCHALCONE, the “PAMPA-BBB Pe” value under setting [8] was 222.92 10^-6 cm/sec. Also, the AC50 is 20.9 µM in data set [1] (Table S1, 48 hr, head prints no unit, µM per Table 1 and Fig. 5); 16.9 µM in data set [2] (Table S1, total neurite length, 48 hr, head prints no unit, µM per Table 1 and Fig. 5, read-out: TNL AC50 (48 hr)).
Regarding `CC(/C=C/C(=O)NO)=C\[C@@H](C)C(=O)c1ccc(N(C)C)cc1` [Trichostatin A], the “PAMPA-BBB Pe” value is 54.74 10 × 10^− 6 cm/sec under setting [4] and 55 10^-6 cm/sec under setting [5]. The AC50 in data set [3] (setting [9]) came to 0.472 µM; in data set [2] (setting [6]), 1.7 µM; in data set [2] (setting [7]), 1.66 µM. Moreover, the Papp in “in vitro” (setting [8]) is 54.7 ×10⁻⁶ cm/s.
`COc1ccc(/C=C\c2cc(OC)c(OC)c(OC)c2)cc1O` [Combretastatin A4]: the “PAMPA-BBB Pe” value runs as follows: under setting [4], 315.59 10 × 10^− 6 cm/sec; under setting [5], 316 10^-6 cm/sec. Further, the AC50 in data set [3] (setting [9]) stood at 0.047 µM; in data set [3] (setting [10]), 0.047 µM; in data set [2] (setting [11]), 0.0277 µM; in data set [2] (setting [7]) it was 0.028 µM. For the same compound, the apparent permeability (Papp) in “in vitro” (setting [8]) is 316 ×10⁻⁶ cm/s.
Take `COc1ccc2c(c1OC)C(=O)O[C@@H]2[C@H]1c2c(cc3c(c2OC)OCO3)CCN1C` [Noscapine, reference compound]: where the note is “PAMPA”, the “PAMPA-BBB Pe” value is 74.54 10 × 10^− 6 cm/sec. Also, the AC50 in data set [3] (setting [9]) was determined as 11.6 µM; in data set [3] (setting [10]), 11.6 µM; in data set [2] (setting [11]), 1.06 µM; in data set [2] (setting [6]) it was 1.1 µM; in data set [2] (setting [7]) it was 1.06 µM. Besides, in “in vitro”, the Papp came out at 74.5 ×10⁻⁶ cm/s.
For `COc1ccc2c(c1OC)C(=O)O[C@@H]2[C@H]1c2cc3c(cc2CCN1C)OCO3` [Hydrastine], the “PAMPA-BBB Pe” value under setting [5] is reported as 57 10^-6 cm/sec. The AC50 in data set [3] (setting [10]) turned out to be 22.8 µM; in data set [2] (setting [11]) it was 26.1 µM. In “in vitro” (setting [8]), this compound had an apparent permeability coefficient (Papp) of 57.4 ×10⁻⁶ cm/s.
`C/C(=C\c1csc(C)n1)[C@@H]1C[C@@H]2O[C@]2(C)CCC[C@H](C)[C@H](O)[C@@H](C)C(=O)C(C)(C)[C@@H](O)CC(=O)O1` [Patupilone]: under setting [4], the “PAMPA-BBB Pe” value is given as 10.52 10 × 10^− 6 cm/sec. Moreover, the “Viability AC50 (48 h)” value in data set [1] (48 h treatment) is “inactive”. The AC50 amounted to 0.0068 µM in data set [2] (setting [11]) and 0.007 µM in data set [2] (setting [7]). Also, the Papp in “in vitro” (setting [8]) was 10.5 ×10⁻⁶ cm/s; in the data set “in vitro” (setting [5]) it was 11 ×10⁻⁶ cm/s.

By AC50 is commonly meant the concentration at which the activity in the assay is half-maximal. One may read the Papp as the rate of passage across a membrane or cell layer, normalised by area and donor concentration. A higher Papp goes with fast passage.
